Key:
Test in all cases: relative viability (nuclei count vs DMSO), 5 days (fraction); higher = more cells survive
[1] = compound: CC(O)(CS(=O)(=O)c1ccc(F)cc1)C(=O)Nc1ccc(C#N)c(C(F)(F)F)c1 [Bicalutamide] + CCNC(=O)c1noc(-c2cc(C(C)C)c(O)cc2O)c1-c1ccc(CN2CCOCC2)cc1 [Luminespib] (partner 0.01 µM)
Method in brief: (§1)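 Each reported value is a median over duplicate plates. It expresses relative viability: treated-well nuclei count divided by vehicle-well nuclei count. Lung cancer cell lines in 1536-well plates were dosed by pin tool a day after seeding, alone with one drug or with a fixed anchor-drug dose plus five library-drug doses (not always all listed) in √10 steps, and nuclei were counted after 5 days.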

Bicalutamide + Foretinib = compound: CC(O)(CS(=O)(=O)c1ccc(F)cc1)C(=O)Nc1ccc(C#N)c(C(F)(F)F)c1 [Bicalutamide] + COc1cc2c(Oc3ccc(NC(=O)C4(C(=O)Nc5ccc(F)cc5)CC4)cc3F)ccnc2cc1OCCCN1CCOCC1 [Foretinib] (partner 0.25 µM)
Method in brief: as §1

[2] = compound: CC(O)(CS(=O)(=O)c1ccc(F)cc1)C(=O)Nc1ccc(C#N)c(C(F)(F)F)c1 [Bicalutamide] + CS(=O)(=O)N1CCN(Cc2cc3nc(-c4cccc5[nH]ncc45)nc(N4CCOCC4)c3s2)CC1 [Pictilisib] (partner 1 µM)
Method in brief: as §1

[3] = compound: CC(O)(CS(=O)(=O)c1ccc(F)cc1)C(=O)Nc1ccc(C#N)c(C(F)(F)F)c1 [Bicalutamide] + C[C@@H](Oc1cc(-c2cnn(C3CCNCC3)c2)cnc1N)c1c(Cl)ccc(F)c1Cl [Crizotinib] (partner 1 µM)
Method in brief: as §1

[4] = compound: CC(O)(CS(=O)(=O)c1ccc(F)cc1)C(=O)Nc1ccc(C#N)c(C(F)(F)F)c1 [Bicalutamide] + C[C@]1(O)C[C@@H](c2nc(-c3ccc4ccc(-c5ccccc5)nc4c3)c3c(N)nccn32)C1 [Linsitinib] (partner 1 µM)
Method in brief: as §1

With UMC-11 the relative viability ([1]; first compound 0.08 µM) was 1.07, the relative viability ([1]; first compound 0.253 µM) was 1.03 and the relative viability ([1]; first compound 0.8 µM) was 1.14. It also gave a relative viability ([1]; first compound 2.53 µM) of 0.949, a relative viability (Bicalutamide + Foretinib; first compound 0.08 µM) of 1.11 and a relative viability (Bicalutamide + Foretinib; first compound 0.253 µM) of 0.966. For the same cell line, the relative viability (Bicalutamide + Foretinib; first compound 0.8 µM) was 1.08, the relative viability (Bicalutamide + Foretinib; first compound 2.53 µM) was 1.05 and the relative viability ([2]; first compound 0.08 µM) was 0.742. The relative viability ([2]; first compound 0.253 µM) was 0.621, the relative viability ([2]; first compound 0.8 µM) was 1.14 and the relative viability ([2]; first compound 2.53 µM) was 0.768. The relative viability ([3]; first compound 0.08 µM) was 0.69, the relative viability ([3]; first compound 0.253 µM) was 0.521 and the relative viability ([3]; first compound 0.8 µM) was 0.643. For the same cell line, the relative viability ([3]; first compound 2.53 µM) was 0.399, the relative viability ([4]; first compound 0.08 µM) was 1.1 and the relative viability ([4]; first compound 0.253 µM) was 0.662. The relative viability ([4]; first compound 0.8 µM) was 1.08 and the relative viability ([4]; first compound 2.53 µM) was 0.955.
